From patent publication US7939536B2, “Pyrimidinylisoxazole derivatives” (Aska Pharmaceutical Co., Ltd., priority 2004, dated 2011)

Assay: Measurement of the compounds' metabolic rate (human liver S9)
Assay type: in vitro ADME
Details: human liver S9 0.5 mg protein/mL, NADPH generating system, 1 μmol/L test compound, 37° C. for 5 minutes, LC/MS/MS
Method: (2) Measurement of the Compounds' Metabolic Rate:
Each test compound was added to potassium phosphate buffer (50 mmol/L, pH7.4) containing NADPH generating system (comprising 3.3 mmol/L MgCl2, 3.3 mmol/L glucose 6-phosphate, 1.3 mmol/L β-NADP^+ and 0.4 unit/mL glucose 6-phosphate dehydrogenase) (in which occasion the final concentration was rendered 1 μmol/L) and incubated at 37° C. for 2 minutes. After the incubation, a suspension of human liver S9(the supernatant fraction obtained by centrifuging comminuted human liver cell fluid at 9000×g) in potassium phosphate buffer was added to the system, to the final concentration of 0.5 mg protein/mL. This reaction mixture was incubated at 37° C. for 5 minutes, and to which 4 volume times the reaction mixture of acetonitrile was added, mixed, cooled with ice and centrifuged (2000×g, 10 minutes). A part of the supernatant was taken and analyzed by LC/MS/MS, to determine the remaining rate of unchanged substance in the reaction mixture. The results are shown in the following Table A, concurrently with the measured results of TNF-α production inhibition action in (1) above.

Metabolic rate (remaining rate of unchanged substance: %)	Compound
21.2%	Cc1cccc(-c2noc(NC(=O)Cc3ccccc3Cl)c2-c2ccncn2)c1 [Example 201, 5-[(2-Chlorophenyl)acetylamino]-3-(3-methylphenyl)-4-(4-pyrimidinyl)isoxazole]
43.6%	Cc1cccc(-c2noc(NC(=O)Cc3ccccc3Br)c2-c2ccncn2)c1 [Example 202, 5-[(2-Bromophenyl)acetylamino]-3-(3-methylphenyl)-4-(4-pyrimidinyl)isoxazole]
59.9%	Cc1cccc(-c2noc(NC(=O)Cc3ccccc3C)c2-c2ccncn2)c1 [Example 214, 3-(3-Methylphenyl)-5-[(2-methylphenyl)acetylamino]-4-(4-pyrimidinyl)isoxazole]
38.5%	Cc1cccc(CC(=O)Nc2onc(-c3cccc(C)c3)c2-c2ccncn2)c1 [Example 215, 3-(3-Methylphenyl)-5-[(3-methylphenyl)acetylamino]-4-(4-pyrimidinyl)isoxazole]
52.6%	Cc1cc(-c2noc(NC(=O)Cc3ccccc3C)c2-c2ccncn2)ccc1F [Example 257, 3-(3-Methyl-4-fluorophenyl)-5-[(2-methylphenyl)acetylamino]-4-(4-pyrimidinyl)isoxazole]

The remaining lines, values behind:

Compound	Metabolic rate (remaining rate of unchanged substance: %)
O=C(Cc1ccccc1Cl)Nc1onc(-c2ccc(F)cc2)c1-c1ccncn1 [Example 5, 5-[(2-chlorophenyl)acetylamino]-3-(4-fluorophenyl)-4-(4-pyrimidinyl)isoxazole]	5.8%
O=C(Cc1c(F)cccc1Cl)Nc1onc(-c2ccc(F)cc2)c1-c1ccncn1 [Example 13, 5-[(2-Chloro-6-fluorophenyl)acetylamino]-3-(4-fluorophenyl)-4-(4-pyrimidinyl)isoxazole]	16.1%
O=C(Cc1ccccc1Cl)Nc1onc(-c2ccc(Cl)cc2)c1-c1ccncn1 [Example 61, 3-(4-Chlorophenyl)-5-[(2-chlorophenyl)acetylamino]-4-(4-pyrimidinyl)-isoxazole]	53.1%
O=C(Cc1ccccc1Cl)Nc1onc(-c2ccc(F)cc2F)c1-c1ccncn1 [Example 105, 5-[(2-Chlorophenyl)acetylamino]-3-(2,4-difluorophenyl)-4-(4-pyrimidinyl)isoxazole]	20.4%
Cc1cccc(CC(=O)Nc2onc(-c3ccc(F)cc3F)c2-c2ccncn2)c1 [Example 121, 3-(2,4-Difluorophenyl)-5-[(3-methylphenyl)acetylamino]-4-(4-pyrimidinyl)isoxazole]	46.6%
COc1ccc(-c2noc(NC(=O)Cc3ccccc3Cl)c2-c2ccncn2)c(F)c1 [Example 174, 5-[(2-Chlorophenyl)acetylamino]-3-(2-fluoro-4-methoxyphenyl)-4-(4-pyrimidinyl)isoxazole]	24.1%
Cc1ccc(F)c(-c2noc(NC(=O)Cc3ccccc3)c2-c2ccncn2)c1 [Example 224, 3-(2-Fluoro-5-methylphenyl)-5-(phenylacetylamino)-4-(4-pyrimidinyl)isoxazole]	39.8%
COc1cccc(CC(=O)Nc2onc(-c3ccc(F)c(C)c3)c2-c2ccncn2)c1 [Example 253, 5-[(3-Methoxyphenyl)acetylamino]-3-(3-methyl-4-fluorophenyl)-4-(4-pyrimidinyl)isoxazole]	33.1%
